# Data: patent US7244738B2, “Arylamine-substituted quinazolinone compounds useful as alpha 1A/B adrenergic receptor antagonists” (Roche Palo Alto LLC, priority 2003, dated 2007)
# Tests used:
# [1] = biological target: T1, Alpha1A adrenoceptor (Homo sapiens, UniProt P35348); assay: [3H]prazosin binding (alpha1-adrenoceptor) assay, membranes of transfected CHO-K1 cells; conditions: transfected CHO-K1 cell membranes, read-out: pKi alpha 1A (converted)
# T1 construct: expressed in transfected cells; host or cells: CHO-K1
# T1 sequence (P35348 1-466): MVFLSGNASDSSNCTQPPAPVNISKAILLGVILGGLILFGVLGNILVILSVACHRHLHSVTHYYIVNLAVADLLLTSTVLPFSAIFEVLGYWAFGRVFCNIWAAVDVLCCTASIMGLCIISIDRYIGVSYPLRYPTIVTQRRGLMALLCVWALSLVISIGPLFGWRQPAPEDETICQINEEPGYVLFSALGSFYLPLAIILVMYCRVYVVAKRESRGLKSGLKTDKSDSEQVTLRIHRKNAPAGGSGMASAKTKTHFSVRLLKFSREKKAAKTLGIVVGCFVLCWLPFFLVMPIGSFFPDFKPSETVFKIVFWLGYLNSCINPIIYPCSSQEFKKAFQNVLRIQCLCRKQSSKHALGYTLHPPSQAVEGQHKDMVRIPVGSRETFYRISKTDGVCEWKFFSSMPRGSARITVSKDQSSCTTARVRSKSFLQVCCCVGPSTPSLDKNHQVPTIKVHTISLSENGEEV
# Experimental: (§1) Example [^3H]prazosin Binding (Alpha1-Adrenoceptor) Assay
# (§2) Alpha1A, alpha1B, and alpha1D adrenoceptor transfected CHO-K1 cells, prepared using the methods described by Chang et al., FEBS Lett. 1998, 422:279–283, were grown to confluence in T-162 tissue culture flasks in Ham's F-12 culture medium supplemented with 10% fetal bovine serum, geneticin (150 μg/mL) and streptomycin/penicillin (30 μg/mL/30 μg/mL) at 37° C. in 7% CO2. Cells were harvested by incubating with phosphate-buffered saline (PBS) containing 30 μM EDTA for 5–10 min at 37° C. Cells were pelleted by centrifuging at 500×g for 5 min, and the pelleted cells were homogenized (Polytron homogenizer) in 10 vols (w/v) of 50 mM Tris, 1 mM EDTA, (homogenisation buffer, pH 7.4 at 4° C.). The homogenate was centrifuged at 45,000×g for 20 min. The pellet was resuspended in the homogenizing buffer and rehomogenized. The resulting homogenate was centrifuged at 45,000×g for 20 min. The pellet was resuspended in 50 mM Tris buffer (pH 7.4 at 4° C.), aliquoted, frozen, and stored at −80° C. for further use.
# (§3) The membranes were thawed at room temperature and diluted in assay buffer (50 mM Tris buffer at […]) at 37° C. and homogenized using the Polytron tissue disrupter. The membranes were incubated with the radioligand ([^3H]prazosin, NEN, 0.1–0.5 nM) and test compound at 37° C. for 30 min. The membranes were then filtered over polyethyleneimine-treated GF/B unifilter plates using a Packard Filtermate Harvester and washed with ice-cold 50 mM Tris-HCl, 1 mM EDTA buffer (3×3 sec. washes). Scintillation cocktail was added to the filter plates and bound radioligand determined by liquid scintillation spectrophotometry.
# (§4) For each experiment, total binding (in the absence of any test or reference compounds) and non-specific binding (10 μM phentolamine) were determined. For each sample tested, the concentration producing 50% inhibition of binding (IC50) and Hill Slope (nH) was determined using iterative non-linear curve fitting techniques with Kaleidagraph (Synergy Software) or other appropriate software. If the radioligand KD was known, the inhibition dissociation constant (KI) of each ligand was determined according to the method of Cheng and Prusoff (Cheng, Y-C. and Prusoff, W. H., Biochem. Pharmacol., 1973, 22, 3099–3108).
# [2] = biological target: T2, alpha1B adrenoceptor (Homo sapiens, UniProt P35368); assay: as above; conditions: transfected CHO-K1 cell membranes, read-out: pKi alpha 1B (converted)
# T2 construct: expressed in transfected cells; host or cells: CHO-K1
# T2 sequence (P35368 1-520): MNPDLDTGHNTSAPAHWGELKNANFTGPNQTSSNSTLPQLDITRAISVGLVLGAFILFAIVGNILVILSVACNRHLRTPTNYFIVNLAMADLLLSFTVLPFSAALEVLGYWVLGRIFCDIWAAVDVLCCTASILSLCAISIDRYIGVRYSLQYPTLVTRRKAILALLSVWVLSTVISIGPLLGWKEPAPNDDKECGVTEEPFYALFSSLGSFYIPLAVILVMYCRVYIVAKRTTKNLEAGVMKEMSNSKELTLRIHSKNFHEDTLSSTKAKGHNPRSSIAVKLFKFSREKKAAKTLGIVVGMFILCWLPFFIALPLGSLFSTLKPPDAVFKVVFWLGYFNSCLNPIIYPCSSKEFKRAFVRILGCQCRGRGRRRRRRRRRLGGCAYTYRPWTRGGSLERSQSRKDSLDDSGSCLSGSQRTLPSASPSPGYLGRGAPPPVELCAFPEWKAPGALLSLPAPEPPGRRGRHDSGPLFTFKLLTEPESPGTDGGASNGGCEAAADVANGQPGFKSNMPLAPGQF
# Experimental: as §1, §2, §3, §4
# [3] = biological target: T3, alpha1D adrenoceptor (Homo sapiens, UniProt P25100); assay: as above; conditions: transfected CHO-K1 cell membranes, read-out: pKi alpha 1D (converted)
# T3 construct: expressed in transfected cells; host or cells: CHO-K1
# T3 sequence (P25100 1-572): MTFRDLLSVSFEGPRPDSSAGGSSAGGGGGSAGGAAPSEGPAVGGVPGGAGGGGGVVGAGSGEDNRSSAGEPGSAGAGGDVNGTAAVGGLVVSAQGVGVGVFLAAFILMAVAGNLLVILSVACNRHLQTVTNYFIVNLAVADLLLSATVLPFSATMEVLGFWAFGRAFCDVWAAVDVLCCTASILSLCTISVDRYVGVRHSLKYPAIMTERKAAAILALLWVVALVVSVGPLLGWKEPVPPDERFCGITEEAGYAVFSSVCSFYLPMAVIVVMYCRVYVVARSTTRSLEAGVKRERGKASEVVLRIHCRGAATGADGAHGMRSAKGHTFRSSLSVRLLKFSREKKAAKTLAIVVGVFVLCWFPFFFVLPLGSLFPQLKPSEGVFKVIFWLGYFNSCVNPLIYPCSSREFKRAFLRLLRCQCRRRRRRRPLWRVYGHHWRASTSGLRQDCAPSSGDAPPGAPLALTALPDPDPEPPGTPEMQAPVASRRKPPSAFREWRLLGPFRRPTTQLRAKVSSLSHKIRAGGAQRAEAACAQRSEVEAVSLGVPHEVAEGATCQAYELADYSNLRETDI
# Experimental: as §1, §2, §3, §4
# [4] = test system: anesthetized dog; assay: Dog in vivo intraurethral and blood pressure assay; conditions: anesthetized male Mongrel dog, i.v. bolus, increasing doses
# Experimental: Dog In Vivo Intraurethral and Blood Pressure Assay
# The following describes an in vivo assay for measuring the relative effect of test compounds on hypogastric nerve stimulation-induced increases in intraurethral pressure and phenylephrine-induced increases in diastolic blood pressure in anesthetized dog.
# Male Mongrel dogs (10 to 20 kg) were fasted for 12 to 18 hours and anesthetized with phenobarbital sodium (36 mg/kg, i.v.). An endotracheal tube was inserted and thereafter the lungs were mechanically ventilated with room air. The right femoral vein was isolated and cannulated with two polyethylene cannulae, one for the administration of a continuous infusion of phenobarbital sodium (5 to 10 mg/kg/hr) and the other for bolus administration of test substances. The right femoral artery was isolated and cannulated to the abdominal aorta with a fluid filled polyethylene cannula connected to an external pressure transducer for monitoring diastolic aortic pressure (DAP). The bladder was exposed via a ventral midline abdominal incision and emptied of urine through a 22 gauge needle. The bladder was cannulated through a stab incision with a water filled balloon catheter connected to an external pressure transducer for monitoring prostatic intraurethral pressure (IUP). The right hypogastric nerve (HGN) was carefully isolated and attached to a Dastre's electrode for nerve stimulation. […]
Structure (SMILES),Ki [1] [nM],Ki [2] [nM],Ki [3] [nM],inhibition of hypogastric nerve (HGN) stimulation-induced increases in intraurethral pressure (IUP) [4],inhibition of phenylephrine-induced increases in diastolic aortic pressure (DAP) [4]
"COc1cc2[nH]c(N(C)Cc3cccc(C4=NCCO4)c3)nc(=O)c2c(OC)c1OC [2-{[3-(4,5-dihydro-oxazol-2-yl)-benzyl]-methyl-amino}-5,6,7-trimethoxy-1H-quinazolin-4-one]",813,14.8,2630,–,–
"COc1cc2[nH]c(N(C)Cc3ccc(OCC(O)CO)cc3)nc(=O)c2c(C)c1OC (centres unmarked) [2-{[4-(2,3-dihydroxy-propoxy)-benzyl]-methyl-amino}-6,7-dimethoxy-5-methyl-1H-quinazolin-4-one]",7.08,6.92,794,–,–
"COc1cc2[nH]c(N(C)Cc3cccc(CN4CCC(OC)C4)c3)nc(=O)c2c(OC)c1OC (centres unmarked) [5,6,7-trimethoxy-2-{[3-(3-methoxy-pyrrolidin-1-ylmethyl)-benzyl]-methyl-amino}-1H-quinazolin-4-one]",5.37,7.41,5370,–,–
"COc1cc2[nH]c(N(C)Cc3ccc4c(c3)CN(C)C4)nc(=O)c2c(C)c1OC [6,7-Dimethoxy-5-methyl-2-[methyl-(2-methyl-2,3-dihydro-1H-isoindol-5-ylmethyl)-amino]-1H-quinazolin-4-one]",3.24,14.8,2630,–,–
COc1cc2nc(N3CCN(C(=O)c4ccco4)CC3)nc(N)c2cc1OC [prazosin],–,–,–,inhibited increases in IUP and DAP in similar fashion,inhibited increases in IUP and DAP in similar fashion
